Here are results for four compounds from patent US20230002346A1, “NEW COMPOUNDS AND METHODS” (BenevolentAl Bio Limited, priority 2019, published 2023).

As usually defined, the Kp is the ratio of the level in a tissue or fluid to that in plasma or blood. As usually defined, the solubility is how much of the substance goes into solution per volume. Read a low solubility as a poorly soluble substance. What is called IC50 is the concentration at which inhibition is half-maximal. Higher therefore signals a need for much substance. By clearance is commonly meant a measure of how efficiently the substance is removed, as volume per time. A high value points to efficient removal. By bioavailability is commonly meant dose-corrected exposure relative to a reference, in per cent. Lower therefore signals little systemic uptake.

Converted amounts (≈) assume the structure as drawn.

Series [1] can be described thus: Brain to plasma (B:P) ratio in rat. Type of series: in vivo, Sprague Dawley Rats. To be noted: male, Sprague Dawley, iv.
A short description of series [2]: Kinetic aqueous solubility assay. Type of series: physicochemical. To be noted: aqueous buffer, kinetic from dmso stock, 0.05M potassium phosphate buffer pH 7.4, 250 μM spike, RT. Summed up:
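Compound added from DMSO stock into 0.05M potassium phosphate buffer pH 7.4 at 250 μM final, shaken 30 min at RT to induce precipitation (n=2). Appearance noted visually. Filtrate concentration determined by UV peak area against calibration standards.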

The target of another series is T1, hERG channel (Homo sapiens, UniProt Q12809).
T1 construct: expressed in transfected cells
T1 sequence (Q12809 whole entry): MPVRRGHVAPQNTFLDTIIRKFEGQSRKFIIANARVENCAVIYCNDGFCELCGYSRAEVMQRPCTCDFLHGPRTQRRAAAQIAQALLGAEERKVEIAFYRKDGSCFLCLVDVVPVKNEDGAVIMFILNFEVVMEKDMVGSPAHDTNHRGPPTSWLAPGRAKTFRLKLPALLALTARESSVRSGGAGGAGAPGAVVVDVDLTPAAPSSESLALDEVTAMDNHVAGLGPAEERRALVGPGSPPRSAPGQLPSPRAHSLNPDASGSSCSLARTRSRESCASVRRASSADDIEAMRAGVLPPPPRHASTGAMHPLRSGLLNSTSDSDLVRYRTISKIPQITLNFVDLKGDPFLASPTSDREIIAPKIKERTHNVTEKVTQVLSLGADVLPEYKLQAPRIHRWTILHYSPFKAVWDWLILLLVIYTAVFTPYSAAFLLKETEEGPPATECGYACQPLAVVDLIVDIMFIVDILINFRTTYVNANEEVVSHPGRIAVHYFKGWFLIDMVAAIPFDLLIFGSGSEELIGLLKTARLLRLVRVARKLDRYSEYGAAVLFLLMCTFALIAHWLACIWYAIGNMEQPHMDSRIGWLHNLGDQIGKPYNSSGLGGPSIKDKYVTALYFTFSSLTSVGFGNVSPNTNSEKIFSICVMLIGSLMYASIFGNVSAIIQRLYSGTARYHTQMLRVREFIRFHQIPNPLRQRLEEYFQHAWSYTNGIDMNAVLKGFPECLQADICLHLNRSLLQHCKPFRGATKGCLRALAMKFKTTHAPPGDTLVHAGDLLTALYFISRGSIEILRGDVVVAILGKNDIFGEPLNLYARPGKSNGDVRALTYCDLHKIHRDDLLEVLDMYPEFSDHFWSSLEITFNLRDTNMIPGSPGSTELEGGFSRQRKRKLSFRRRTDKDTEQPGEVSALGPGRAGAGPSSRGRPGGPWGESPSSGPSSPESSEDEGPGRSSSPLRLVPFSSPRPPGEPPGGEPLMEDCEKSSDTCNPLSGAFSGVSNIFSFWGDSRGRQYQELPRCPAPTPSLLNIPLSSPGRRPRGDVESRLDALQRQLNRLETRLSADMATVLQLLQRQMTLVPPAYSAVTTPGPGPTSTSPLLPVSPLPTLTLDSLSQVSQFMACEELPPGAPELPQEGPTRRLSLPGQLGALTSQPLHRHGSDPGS
As to the kind of experiment: hERG assay (QPatch automated patch clamp, CHO cells). Type of series: cell-based. To be noted: CHO cells expressing hERG, whole-cell patch clamp, 0.003 μM to 10 μM. An excerpt:
The human ether-a-go-go related gene (hERG) potassium channel (Kv11.1) contributes to human cardiac action potential repolarisation. Inhibition of hERG channels can prolong the human cardiac action potential, resulting in QTc prolongation and potentially lethal arrhythmias (e.g. Torsade de Pointes).
Test samples were screened against the hERG channel on a QPatch 48 gigaseal automated patch clamp platform, using a Chinese Hamster Ovary (CHO) cell line stably expressing the human ether-á-go-go related gene, which encodes the hERG channel. All recordings were made in the conventional whole-cell configuration and performed at RT ([…]) using standard single hole chips (Rchip 1.5-4M0). Series resistance (4-15Mc) was compensated by >80%. Currents were elicited from a holding potential of −90 mV using the industry standard “^+40/−40” voltage protocol, which was applied at a stimulus frequency of 0.1 Hz. On achieving the whole-cell configuration, vehicle (0.1% DMSO v/v in external recording solution) was applied to each cell in two bolus additions with a 2 min recording period between each addition. Following the vehicle period, eight increasing concentrations of test sample were applied from 0.003 μM to 10 μM as a single bolus addition per test concentration, and the effects on hERG tail current amplitude measured during the 2 min recording period. Each eight-point concentration-response curve was constructed using cumulative single sample additions of each concentration to the same cell. The positive control used in this study was verapamil hydrochloride (Tocris, Cat #0654, Batch #5A/61673) and prepared to a stock concentration of 10 mM in 100% DMSO and kept as frozen aliquots.
Data analysis: All cells passing the QC parameters (i.e. >200 pA outward current, membrane resistance and rundown) are selected as ‘passed QC’ using the QPatch software, which then calculates the mean peak current for the last three sweeps at the end of each concentration application period from the cursor positions defined. Percent inhibition is calculated for each test concentration application period as the reduction in mean cursor value (peak current or charge) relative to the cursor value measured at the end of the control (i.e. vehicle) period. The percent inhibition values from each cell are used to construct concentration-response curves employing a four parametric logistic fit with 0 and 100% inhibition levels fixed at very low and very high concentrations, respectively, and a free Hill slope factor. The IC50 (50% inhibitory concentration) and Hill coefficient are then determined, but only data from cells with Hill slopes within 0.5>nH<2.0 are included. The IC50 data reported below represents the mean (and S.D.) of at least three separate cells (N≥3). […] Compounds of the invention show reduced hERG inhibitory activity compared to the reference examples.

Series [3] has as its target T2, Ba/F3 cells expressing BCR-ABL (Homo sapiens, UniProt P00519).
T2 construct: BCR (fusion partner); host or cells: Ba/F3 (IL-3 dependent murine pro-B cells); the other entry of the earlier key: BCR (P11274, Breakpoint cluster region protein)
The series can be described thus: Ba/F3 CellTiter-Glo Assay. Type of series: cell-based. Particulars: 48 h. As for the experimental part: The CellTiter-Glo luminescent cell viability assay is a homogeneous method of determining the number of viable cells in culture based on quantification of the ATP present. Briefly, IL-3 dependent Ba/F3 cells are modified to express BCR-ABL. Activity of the transformed kinase overrides IL3 dependency for cellular proliferation and survival. […] Test compounds were dispensed into 384 well plates using the Tecan D300e at a top final assay concentration of 10 μM with dosing normalised to 0.1% DMSO in 50 μL volume. […] Following a 60 min incubation at RT luminescence was read on the Pherastar FS reader.
(In general: ATP-based viability assays read luminescence as a measure of living cells.)

Series [4] in a line: Rat PK profile (bioavailability, clearance, half-life). Type of series: in vivo. Particulars: male, Sprague Dawley, plasma, i.v. dose 0.5 mg/kg. As for the experimental part:
Male Sprague Dawley Rats 300-350 g (Charles River, UK) were group housed, n=3, under a 12 h light/dark cycle with food and water available ad libitum. At 17:00 on the day prior to dosing all food was removed. On the day of dosing animals were weighed, tail marked and dosed via oral gavage with compound at 3 mg/kg in a volume of 5 mL/kg. Animals were culled at 30 min, 1 h and 4 h post dose via intra-peritoneal administration of pentobarbital. Post mortem blood was withdrawn via cardiac puncture, and briefly stored in K2 EDTA blood tubes on ice before being spun at 14,000 g for 4 min at 4° C. Plasma was withdrawn into a 96 well plate, placed on dry ice and stored at −80° C. Brains were quickly dissected and placed on dry ice before storage at −80° C. Bioanalysis of plasma and brain samples is performed as detailed below. Methods were prepared with guidance from industry standard documents.^i,ii
A 10 mM DMSO stock is used to prepare spiking solutions of test compound in the range of 10-100,000 ng/mL in diluent (MeCN:water, 1;1). Calibration lines are prepared in control male Sprague-Dawley Rat plasma at known concentrations in the range of 1-10000 ng/mL by spiking 2.5 μL of calibration spiking solution into 25 μL control plasma. Experimental samples are thawed to RT and 25 μL aliquots are extracted alongside the calibration lines using protein precipitation (agitation for at least 5 min at RT with 400 μL of MeCN containing 25 ng/mL tolbutamide as an internal standard). Protein precipitates are separated from the extracted test compound by centrifugation at 4000 rpm for 5 min, 4° C. The resulting supernatants are diluted in a ratio of 1:2 with a relevant diluent (e.g. 0.1% formic acid in water or 1:1 MeOH:water). Samples are analysed by UPLC-MS/MS on either an API6500 QTrap or Waters 30 TQS mass spectrometer using previously optimised analytical MRM (multiple reaction monitoring) methods, specific to the test compound. The concentration of test compound in isolated samples is determined following analysis of the samples against the two replicates of the calibration line, injected before and after the sample set with an appropriate regression and weighting used. Only samples within 20% of the expected test concentration are included in the calibration line and any samples that fall outside of the limits of the calibration line will be deemed to be less than or above the limit of quantification (LLoQ/ALoQ).
Pharmacokinetic parameters such as bioavailability (% F), clearance (CL), half-life (T½) and volume of distribution are calculated by non-compartmental analysis using Phoenix Winnonlin 64 software (build 8.0). The bioavailability was calculated from p.o. dosed rats, whereas the clearance and half-life were calculated from i.v. dosed rats. Briefly, in vivo plasma concentrations, timepoints and dose values are imported into the software in a compatible format. Plasma concentration for each animal is plotted against time, and the elimination phase identified and selected. The area under the curve for each plot is calculated using a linear trapezoidal linear interpolation from which pharmacokinetic parameters can subsequently be determined. […] Compounds of the invention have much improved clearance (CL) and half-life (T½) compared to the reference examples.

For series [5], the system named is Salmonella typhimurium, strains TA98 and TA100. The series can be described thus: Ames assay (Bacterial Reverse Mutation Test). The series is classed as cell-based. Particulars: TA98 and TA100, presence and absence of S-9 mix, up to 5000 μg/plate. As for the experimental part: Examples 50, 52 and 54 were tested, in vitro, for their ability to induce mutations in 2 histidine dependent auxotrophic mutants of Salmonella typhimurium, strains TA98 and TA100. The mutation screen was conducted using the plate incorporation method and was performed in both the presence and absence of S-9 mix (a liver post-mitochondrial fraction derived from the livers of Aroclor 1254 treated rats). The bacteria were exposed to the test items dissolved in DMSO, which was also the negative Control. The test items were tested up to the regulatory maximum dose level. The dose levels used were 5, 15, 50, 150, 500, 1500 or 5000 μg/plate, unless the highest treatment level of the test items was limited by solubility, or toxicity against the background bacterial lawn. Dose levels were expressed in terms of the free base.
There were no increases of 2-fold or greater in revertant numbers compared with negative Control values in either strain at any dose level in the presence or absence of S-9 mix, so Examples 50, 52 and 54 were not mutagenic in the Bacterial Reverse Mutation (i.e. Ames) Test under the conditions of this screen.

T2 sequence (P00519 28-1130 limits assumed): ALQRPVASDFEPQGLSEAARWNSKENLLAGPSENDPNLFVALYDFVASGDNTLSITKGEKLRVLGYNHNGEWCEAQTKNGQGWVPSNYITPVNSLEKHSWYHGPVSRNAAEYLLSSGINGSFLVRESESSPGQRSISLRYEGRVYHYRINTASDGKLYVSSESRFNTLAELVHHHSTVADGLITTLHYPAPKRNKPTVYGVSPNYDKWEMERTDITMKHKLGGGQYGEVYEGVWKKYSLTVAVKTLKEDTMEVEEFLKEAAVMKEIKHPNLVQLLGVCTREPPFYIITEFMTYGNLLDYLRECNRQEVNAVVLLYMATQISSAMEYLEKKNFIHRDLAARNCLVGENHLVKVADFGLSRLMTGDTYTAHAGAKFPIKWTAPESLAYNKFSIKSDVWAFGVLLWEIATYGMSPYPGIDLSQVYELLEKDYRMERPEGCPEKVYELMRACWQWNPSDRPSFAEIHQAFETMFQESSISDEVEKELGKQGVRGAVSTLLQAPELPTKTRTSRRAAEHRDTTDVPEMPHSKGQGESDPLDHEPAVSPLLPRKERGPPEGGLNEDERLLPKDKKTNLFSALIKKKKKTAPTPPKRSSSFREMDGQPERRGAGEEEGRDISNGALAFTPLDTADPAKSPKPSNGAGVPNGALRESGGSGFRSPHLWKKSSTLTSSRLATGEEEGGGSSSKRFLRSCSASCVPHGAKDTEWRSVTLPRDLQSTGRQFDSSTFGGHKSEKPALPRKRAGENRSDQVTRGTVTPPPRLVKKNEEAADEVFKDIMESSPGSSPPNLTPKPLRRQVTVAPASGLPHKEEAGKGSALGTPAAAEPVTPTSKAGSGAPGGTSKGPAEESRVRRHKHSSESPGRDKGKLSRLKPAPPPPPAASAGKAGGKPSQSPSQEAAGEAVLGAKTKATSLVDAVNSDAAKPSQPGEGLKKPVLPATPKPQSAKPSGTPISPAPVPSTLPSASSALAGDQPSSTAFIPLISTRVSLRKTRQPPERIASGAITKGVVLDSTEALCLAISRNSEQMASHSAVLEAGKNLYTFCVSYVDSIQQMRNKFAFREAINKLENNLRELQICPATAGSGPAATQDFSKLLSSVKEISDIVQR

For the compound `O=C(Nc1ccc(OC(F)(F)Cl)cc1)c1ccc(=O)n(-c2cncnc2)c1` [Example 51, N-[4-(Chlorodifluoromethoxy)phenyl]-6-oxo-1-(pyrimidin-5-yl)-1,6-dihydropyridine-3-carboxamide], in series [1] (i.v. 1.5 mg/kg, 3.3% NMP in 30% HPBC in water, timepoints averaged 0.5-1 h), the concentration ratio (Kp) was found to be 0.67. The compound further gave a solubility at 30 min in series [2] of 190 µM (≈ 74.6 µg/mL). For the same compound, at hERG channel, the IC50 is more than 10 µM.
For `Cn1cc(-n2cc(C(=O)Nc3ccc(OC(F)(F)Cl)cc3)cc(C#N)c2=O)cn1` [Example 79, N-[4-(Chlorodifluoromethoxy)phenyl]-5-cyano-1-(1-methyl-1H-pyrazol-4-yl)-6-oxo-1.6-dihydropyridine-3-carboxamide], in series [3], the 50% inhibitory concentration (IC50) was in the range of 0.151 to 1 µM.
Regarding `O=C(Nc1ccc(OC(F)(F)Cl)cc1)c1ccc(=O)n(-c2cncc(F)c2)c1` [Example 54, N-[4-[Chloro(difluoro)methoxy]phenyl]-1-(5-fluoro-3-pyridyl)-6-oxo-pyridine-3-carboxamide], the clearance in series [4] (iv) was 4 mL/min/kg. Moreover, in series [4] (iv, read-out: T½ (converted)), the half-life is 7.6 h. Moreover, the bioavailability in series [4] (po, p.o. dose 3 mg/kg) was 97%. In series [1] (i.v. 0.5 mg/kg, 5% NMP in 30% HPBC in water, timepoints averaged 0.17-1 h), the partition ratio (Kp) was found to be 0.53. In series [2], this compound registered a solubility at 30 min of 170 µM (≈ 69.7 µg/mL). In addition, in series [5], the “mutagenicity in the Bacterial Reverse Mutation (Ames) Test” value is reported as “not mutagenic”.
`O=C(Nc1ccc(OC(F)(F)Cl)cc1)c1ccc(=O)n(-c2ccc[n+]([O-])c2)c1` [Example 78, 5-{[4-(Chlorodifluoromethoxy)phenyl]carbamoyl}-2-oxo-2H-[1.3′-bipyridin]-1′-ium-1′-olate] gave a solubility at 30 min in series [2] of 150 µM (≈ 61.2 µg/mL). In series [3], the IC50 was 0.151 to 1 µM.
